Measured values taken from BindingDB's records for doi:10.1007/s10822-022-00478-x (Roche Innovation Center Basel, F. Hoffmann-La Roche Ltd., 2022).

Molecular target: cAMP and cAMP-inhibited cGMP 3',5'-cyclic phosphodiesterase 10A (Homo sapiens, UniProt Q9Y233)
Experiment: PDE10A assay
Summary of the method: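 Scintillation proximity readout of [3H]cGMP hydrolysis (50 nM final substrate, 15 min) by 2 ng/well human PDE10A after 15 min compound preincubation at RT, pH 7.5 with MgCl2. Four-parameter logistic fit gave IC50, reported as pIC50.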

Row | Structure (SMILES) | IC50 [nM]
1 | CCOC(=O)c1cnn(C)c1C(=O)Nc1ccn2nc(-c3cccnc3)nc2c1 [Roche-Dataset for PDE10A, Compound 268] | 34
2 | Cc1ncc(C)n2nc(CCc3nc(N4CCC[C@@H]4C)nn3C)nc12 [Roche-Dataset for PDE10A, Compound 269] | 4.54
3 | O=C(NCCc1noc(-c2ccccc2)n1)c1nc(C2CC2)cnc1Nc1cncnc1 [Roche-Dataset for PDE10A, Compound 271] | 48
4 | CNC(=O)c1cc(Cl)c(C)n2nc(CCc3nc(N4CCCC4)nn3C)nc12 [Roche-Dataset for PDE10A, Compound 273] | 6160
5 | Cc1cnc(C)n2nc(/C=C/c3nc(N4CCCC4)nn3C3CC3)nc12 [Roche-Dataset for PDE10A, Compound 274] | 19
6 | O=C(NCCc1noc(Cc2ccccc2)n1)c1nc(C2CC2)cnc1Nc1cncnc1 [Roche-Dataset for PDE10A, Compound 275] | 137
7 | CN(CCO)C(=O)c1cnn(C)c1C(=O)Nc1ccn2nc(N3CCOCC3)nc2c1 [Roche-Dataset for PDE10A, Compound 276] | 20
8 | COc1ccccc1-c1cn2c(n1)C[C@H](NC(=O)c1c(C(=O)N(C)C3CC3)cnn1C)CC2 [Roche-Dataset for PDE10A, Compound 278] | 13
9 | CCOC(=O)c1cnn(C)c1C(=O)Nc1ccn2nc(-c3ccnc(F)c3)nc2c1 [Roche-Dataset for PDE10A, Compound 280] | 790
10 | Cn1ncc(C(=O)N2CCC2)c1C(=O)Nc1ccn2nc(-c3cccnc3)nc2c1 [Roche-Dataset for PDE10A, Compound 281] | 1.16
11 | Cc1cc(NC(=O)c2ccc3cc(-c4ccccc4)nn3c2)cc(C)n1 [Roche-Dataset for PDE10A, Compound 286] | 75
12 | Cn1ncc(CO)c1C(=O)Nc1ccn2nc(-c3ccccc3)nc2c1 [Roche-Dataset for PDE10A, Compound 287] | 52
13 | Cn1cc(-c2ccccc2)nc1CCc1cncc(-c2ccn[nH]2)n1 [Roche-Dataset for PDE10A, Compound 289] | 307
14 | CNC(=O)c1c(-c2nc(CCc3nc4c(C)ncc(C)n4n3)n(C)n2)cnn1C [Roche-Dataset for PDE10A, Compound 290] | 337
15 | O=C1c2ccccc2C(=O)N1CCc1csc(-c2cccnc2)n1 [Roche-Dataset for PDE10A, Compound 292] | 5910
16 | Cc1nc(C)n2nc(/C=C/c3nc(N4CCCC4)nn3C)nc2c1C [Roche-Dataset for PDE10A, Compound 293] | 9.16
17 | Cn1cc(-c2cccc(CCc3nc(-c4ccccc4)cn3C)n2)cn1 [Roche-Dataset for PDE10A, Compound 296] | 6500
18 | Cn1cc(-c2ccccc2)nc1COc1ncc(Cl)nc1C(=O)NCc1ccccc1 [Roche-Dataset for PDE10A, Compound 297] | 134
19 | Cn1cc(-c2ccccc2)nc1CCNC(=O)c1cccn2c(C(F)(F)F)nnc12 [Roche-Dataset for PDE10A, Compound 298] | 88
20 | O=C1c2ccccc2C(=O)N1CCc1cnc(-c2ccccc2)[nH]1 [Roche-Dataset for PDE10A, Compound 299] | 503
21 | Cc1cc(Cl)c(C)n2nc(/C=C/c3nc(N4CCCC4)nn3C)nc12 [Roche-Dataset for PDE10A, Compound 300] | 0.33

Row | Structure (SMILES) | IC50 [nM]
22 | Cn1ncc(C(=O)NC2COC2)c1C(=O)N[C@@H]1CCn2cc(-c3ccccc3)nc2C1 [Roche-Dataset for PDE10A, Compound 302] | 181
23 | COCCNC(=O)c1cc2[nH]c(-c3ccccc3)nc2cc1NC(=O)c1cc(Br)c[nH]c1=O [Roche-Dataset for PDE10A, Compound 303] | 7.17
24 | COCCN(C)C(=O)c1cnn(C)c1C(=O)Nc1cc2nc(-c3ccccc3)nn2cn1 [Roche-Dataset for PDE10A, Compound 304] | 0.79
25 | COCCNC(=O)c1cc2[nH]c(-c3ccccc3)nc2cc1NC(=O)c1ccnnc1 [Roche-Dataset for PDE10A, Compound 306] | 35
26 | O=C1c2ccccc2CN1c1ccc2nc(-c3ccccc3)[nH]c2c1 [Roche-Dataset for PDE10A, Compound 307] | 371
27 | Cc1c(Cl)nn2c(C)c(/C=C/c3nc(N4CCCC4)nn3C)nc2c1C [Roche-Dataset for PDE10A, Compound 309] | 48
28 | O=C(Nc1ccnc(Cl)c1)c1ccc2cc(-c3ccccc3)nn2c1 [Roche-Dataset for PDE10A, Compound 310] | 37
29 | Cc1ncc(C)n2nc(/C=C/c3nc(N4CCNCC4)nn3C)nc12 [Roche-Dataset for PDE10A, Compound 311] | 1550
30 | Cn1cc(-c2ccccc2)nc1COc1cc(N2CCOCC2)nc(-c2cccnc2)n1 [Roche-Dataset for PDE10A, Compound 312] | 269
31 | CCN(C)C(=O)c1cnn(C)c1C(=O)Nc1ccn2nc(N3CCOCC3)nc2c1 [Roche-Dataset for PDE10A, Compound 315] | 5.67
32 | CN(C)C(=O)c1cnn(C)c1C(=O)N[C@@H]1CCn2cc(-c3ccccc3OC(F)F)nc2C1 [Roche-Dataset for PDE10A, Compound 317] | 19
33 | CN(C)C(=O)c1cnn(C)c1C(=O)Nc1ccn2cc(-c3cccc(Br)c3)nc2n1 [Roche-Dataset for PDE10A, Compound 319] | 40
34 | Cc1ccc(C)c(C(=O)Nc2ccc3cc(-c4ccccc4)nn3c2)n1 [Roche-Dataset for PDE10A, Compound 324] | 53
35 | COC(=O)c1cc(Cl)c(C)n2nc(CCc3nc(N4CCCC4)nn3C)nc12 [Roche-Dataset for PDE10A, Compound 325] | 432
36 | CN(C)c1nc(CCc2nccn2-c2ccccc2)nc2ccccc12 [Roche-Dataset for PDE10A, Compound 326] | 587
37 | O=C(Nc1ccn2nc(-c3ccccc3)nc2c1)c1cc(Cl)nc(Cl)c1 [Roche-Dataset for PDE10A, Compound 327] | 38
38 | Cc1cccc(CCc2nc(-c3ccccc3)cn2C)n1 [Roche-Dataset for PDE10A, Compound 328] | 9270
39 | COc1ccccc1-c1cn2c(n1)C[C@H](NC(=O)c1c(C(=O)N3CCC3)cnn1C)CC2 [Roche-Dataset for PDE10A, Compound 330] | 3.76
40 | CCc1cnc(C)cc1NC(=O)c1ccc2cc(-c3ccccc3)nn2c1 [Roche-Dataset for PDE10A, Compound 331] | 84
41 | COc1cccc(-c2noc(CCN3C(=O)c4ccccc4C3=O)n2)c1 [Roche-Dataset for PDE10A, Compound 332] | 10000
42 | Cc1ncc(Nc2cncnc2)c(C(=O)N[C@@H]2CCN(c3ccc(Cl)cn3)C2)n1 [Roche-Dataset for PDE10A, Compound 336] | 242

Row | Structure (SMILES) | IC50 [nM]
43 | Cn1ncc(C(=O)N2CC(F)C2)c1C(=O)Nc1ccn2nc(-c3cccnc3)nc2c1 [Roche-Dataset for PDE10A, Compound 337] | 1.16
44 | Cc1c(NC(=O)c2c(C(=O)N3CCC3)cnn2C)ccn2nc(-c3ccccc3)nc12 [Roche-Dataset for PDE10A, Compound 341] | 16
45 | Cn1nc(N2CCCC2)nc1CCc1nc2c(C#N)cccn2n1 [Roche-Dataset for PDE10A, Compound 342] | 467
46 | Cn1ncc(C(=O)N2CCOCC2)c1C(=O)N[C@@H]1CCn2cc(-c3ccc(F)cc3)nc2C1 [Roche-Dataset for PDE10A, Compound 346] | 4340
47 | COC1CN(C(=O)c2cnn(C)c2C(=O)Nc2ccn3nc(N4CCOCC4)nc3c2)C1 [Roche-Dataset for PDE10A, Compound 348] | 129
48 | COCCNC(=O)c1cc2[nH]c(-c3ccccc3)nc2cc1NC(=O)c1cc(C2CC2)cnc1OC [Roche-Dataset for PDE10A, Compound 349] | 0.66
49 | Cc1cc(C)n2nc(/C=C/c3nc(N4CCCC4)nn3C3CC3)nc2n1 [Roche-Dataset for PDE10A, Compound 350] | 21
50 | COc1ccccc1-c1cn2c(n1)C[C@H](NC(=O)c1c(C(=O)N(C)CCF)cnn1C)CC2 [Roche-Dataset for PDE10A, Compound 351] | 173
51 | CCOC(=O)c1cnn(C)c1C(=O)Nc1ccn2nc(N3CCCC3)nc2c1 [Roche-Dataset for PDE10A, Compound 353] | 21
52 | O=C(Nc1cc2nc(-c3ccccc3)cn2cc1Br)c1nc(C2CC2)ccc1Nc1cncnc1 [Roche-Dataset for PDE10A, Compound 354] | 1.15
53 | COc1ccccc1-c1nc2cc(NC(=O)c3c(C(=O)O)cnn3C)ccn2n1 [Roche-Dataset for PDE10A, Compound 356] | 9.74
54 | Cc1c(Cl)cc(Cl)c2nc(CCc3nc(N4CCCC4)nn3C)nn12 [Roche-Dataset for PDE10A, Compound 357] | 0.55
55 | CNC(=O)c1cc2[nH]c(-c3ccccc3)nc2cc1NC(=O)c1c(Cl)c(C)nn1C [Roche-Dataset for PDE10A, Compound 358] | 22
56 | CN(c1cncnc1)c1ccc(C2CC2)nc1C(=O)Nc1cc(-c2ccccn2)nn1C [Roche-Dataset for PDE10A, Compound 360] | 5600
57 | Cn1cc(-c2ccccc2)nc1CCc1ncoc1-c1ccccc1 [Roche-Dataset for PDE10A, Compound 361] | 1000
58 | COc1ccccc1-c1nc2n(c1Cl)CC[C@@H](NC(=O)c1c(C(=O)N3CCC3)cnn1C)C2 [Roche-Dataset for PDE10A, Compound 362] | 188
59 | Cc1c(Br)cn2nc(/C=C/c3nc(N4CCCC4)n(C)n3)nc2c1C [Roche-Dataset for PDE10A, Compound 364] | 73
60 | COc1cc(NC(=O)c2ccc3cc(-c4ccccc4)nn3c2)ccn1 [Roche-Dataset for PDE10A, Compound 365] | 144
61 | Cn1cc(-c2ccccc2)nc1COc1nc2ccccc2c(=O)[nH]1 [Roche-Dataset for PDE10A, Compound 366] | 90
62 | O=C(Nc1ccncc1C(F)(F)F)c1ccc2cc(-c3ccccc3)nn2c1 [Roche-Dataset for PDE10A, Compound 367] | 1070
63 | CCn1nc(C)cc1C(=O)Nc1cc2nc(-c3ccccc3)[nH]c2cc1C(=O)NC [Roche-Dataset for PDE10A, Compound 369] | 22
